According to patent US11345666B2, “Phenyl and pyridinyl substituted imidazoles as modulators of RORγT” (Janssen Pharmaceutica NV, priority 2018, dated 2022):

How the values were obtained:
[1] = molecular target: human RORγt ligand binding domain (RORγt LBD) (Homo sapiens (Human), UniProt P51449); assay: RORγt ThermoFluor assay
Source text: ThermoFluor® is a fluorescence based assay that estimates ligand binding affinities by measuring the effect of a ligand on protein thermal stability (Pantoliano, M. W., Petrella, E. C., Kwasnoski, J. D., Lobanov, V. S., Myslik, J., Graf, E., Carver, T., Asel, E., Springer, B. A., Lane, P., and Salemme, F. R. (2001) High-density miniaturized thermal shift assays as a general strategy for drug discovery. J Biomol Screen 6, 429-40, and Matulis, D., Kranz, J. K., Salemme, F. R., and Todd, M. J. (2005) Thermodynamic stability of carbonic anhydrase: measurements of binding affinity and stoichiometry using ThermoFluor. Biochemistry 44, 5258-66). This approach is applicable to a wide variety of systems, and rigorous in theoretical interpretation through quantitation of equilibrium binding constants (KD).
The shift in the melting point described as a ΔTm is proportional to the concentration and affinity of the ligand.
RORγt ThermoFluor® Assay Construct
Nucleotides 850-1635 (SEQ ID NO:2) coding for the wild type human RORγt ligand binding domain (RORγt LBD) were cloned into the pHIS 1 vector, a modified pET E. coli expression vector (Accelagen, San Diego), containing an in-frame N-terminal His-tag and a TurboTEV protease cleavage site (ENLYFQG, SEQ ID NO:3) upstream of the cloned insert sequence. The amino acid sequence for the RORγt construct used in the Thermofluor® assay is shown as SEQ ID NO:4.
ThermoFluor® experiments were carried out using instruments owned by Janssen Research and Development, L.L.C. through its acquisition of 3-Dimensional Pharmaceuticals, Inc. 1,8-ANS (Invitrogen) was used as a fluorescent dye. Protein and compound solutions are dispensed into black 384-well polypropylene PCR microplates (Abgene) and overlayed with silicone oil (1 μL, Fluka, type DC 200) to prevent evaporation.
Bar-coded assay plates are robotically loaded onto a thermostatically controlled PCR-type thermal block and then heated at a typical ramp-rate of 1° C./min for all experiments. Fluorescence was measured by continuous illumination with UV light (Hamamatsu LC6) supplied via fiber optic and filtered through a band-pass filter (380-400 nm; >6 OD cutoff). Fluorescence emission of the entire 384-well plate was detected by measuring light intensity using a CCD camera (Sensys, Roper Scientific) filtered to detect 500±25 nm, resulting in simultaneous and independent readings of all 384 wells. Images were collected at each temperature, and the sum of the pixel intensity in a given area of the assay plate was recorded versus temperature. Reference wells contained RORγt without compounds, and the assay conditions were as follows: • 0.065 mg/mL RORγt • 60 μM 1,8-ANS • 100 mM Hepes, pH 7.0 • 10 mM NaCl • 2.5 mM GSH • 0.002% Tween-20
Project compounds were arranged in a pre-dosed mother plate (Greiner Bio-one) wherein compounds are serially diluted in 100% DMSO by 1:2 from a high concentration of 10 mM over 12 columns within a series (column 12 is a reference well containing DMSO, no compound). The compounds were robotically dispensed directly into assay plates (1×=46 nL) using a Hummingbird capillary liquid handling instrument (Digilab). Following compound dispense, protein and dye in buffer was added to achieve the final assay volume of 3 μL, followed by 1 μL of silicone oil.
The binding affinity was estimated as described previously (Matulis, D., Kranz, J. K., Salemme, F. R., and Todd, M. J. (2005) Thermodynamic stability of carbonic anhydrase: measurements of binding affinity and stoichiometry using ThermoFluor®. Biochemistry 44, 5258-66) using the following thermodynamic parameters of protein unfolding: […]

full-length human RORγt = full-length human RORγt (Homo sapiens (Human), UniProt P51449); assay: RORγt (full-length human) reporter assay, conditions A or B; assay type: cell-based; conditions: for inhibition at 3 µM: 3 μM compound concentration (*); for IC50: HEK293T cells, read-out: RORγt (FL) Reporter Assay A or B, IC50; for inhibition at 6 µM: read-out: RORγt (FL) Reporter Assay A or B, % inhibition @ 6 μM, 6 μM compound concentration
Source text: RORγt (Full-Length Human) Reporter Assay:
Cells used in this assay were transiently co-transfected with three different plasmids, one expressing the GAL4-DNA binding domain (DBD)-RORγt fusion protein under control of a CMV promoter (NH2-Gal4-DBD:RORC—COOH in pCMV-BD, Stratagene #211342), and two reporter plasmids—the firefly luciferase reporter under control of a GAL4 promoter (pFR-Luc 2×GAL4) and Renilla luciferase reporter under control of CMV promoter (pRL-CMV, Promega #E2261). […] HEK293T cells were plated at 35,000 per well in 96-well plate in medium of DMEM with 10% FBS. After 18-22 hours incubation, the transfection was carried out by using a PEI solution with 170.5 ng total DNA/well (50 ng pCMV-BD-ROR plus 20 ng of pFR-Luc reporter and 0.5 ng of pRL-CMV reporter plus 100 ng Carrier DNA (Clontech #630440) for each well). 4-6 hours after transfection, cells were treated with compounds for overnight in the medium with final concentration of FBS 1.3% and DMSO 0.1%. After overnight (16 to 20 hours) incubation, media were removed and cells were lysed with […] Glo Lysis Buffer (Promega) for 10-15 minutes followed by 10 minute incubation with 50 μL Dual Glo reagent (Promega) at room temperature. Firefly luciferase luminescence was measured using a BMG Pherastar plate reader. To each well, 50 μL Stop and Glo reagent was added and incubated for 10 minutes at room temperature. Renilla luminescence was measured using a BMG Pherastar plate reader. To calculate the effect of compounds on RORγt activity, firefly values were normalized against values of DMSO only and values of reference compound at saturating concentration, then further normalized against Renilla signals. IC50s were generated by plotting final Renilla normalized data against compound concentration and percent inhibition was calculated against DMSO control.
Cells used in this assay were transiently co-transfected with three different plasmids, one expressing the GAL4-DNA binding domain (DBD)-RORγt fusion protein under control of a CMV promoter (NH2-Gal4-DBD:RORC—COOH in pCMV-BD, Stratagene #211342), and two reporter plasmids—the firefly luciferase reporter under control of a GAL4 promoter (pFR-Luc 2×GAL4) and Renilla luciferase reporter under control of CMV promoter (pRL-CMV, Promega #E2261). […] HEK293T cells were plated at 8750 cells per well in 384-well plate in medium of DMEM with 10% FBS. After 18-22 hours incubation, the transfection was carried out by using a PEI solution with 42.6 ng total DNA/well (12.5 ng pCMV-BD-ROR plus 5 ng of pFR-Luc reporter and 0.125 ng of pRL-CMV reporter plus 25 ng Carrier DNA (Clontech #630440) for each well). 4-6 hours after transfection, cells were treated with compounds for overnight in the medium with final concentration of FBS 1.3% and DMSO 0.1%. After overnight (16 to 20 hours) incubation, media were removed and cells were lysed with 20 μL Glo Lysis Buffer (Promega) for 10-15 minutes followed by 10 minute incubation with 20 μL Dual Glo reagent (Promega) at room temperature. Firefly luciferase luminescence was measured using a BMG Pherastar plate reader. To each well, 20 μL Stop and Glo reagent was added and incubated for 10 minutes at room temperature. Renilla luminescence was measured using a BMG Pherastar plate reader. To calculate the effect of compounds on RORγt activity, firefly values were normalized against values of DMSO only and values of reference compound at saturating concentration, then further normalized against Renilla signals. IC50s were generated by plotting final Renilla normalized data against compound concentration and percent inhibition was calculated against DMSO control.

[2] = read-out: RORγt (FL) Reporter Assay A or B, % inhibition

human RORγt ligand binding domain (RORγt LBD), sequence (P51449 other isoform, or with tags, fused parts or gaps): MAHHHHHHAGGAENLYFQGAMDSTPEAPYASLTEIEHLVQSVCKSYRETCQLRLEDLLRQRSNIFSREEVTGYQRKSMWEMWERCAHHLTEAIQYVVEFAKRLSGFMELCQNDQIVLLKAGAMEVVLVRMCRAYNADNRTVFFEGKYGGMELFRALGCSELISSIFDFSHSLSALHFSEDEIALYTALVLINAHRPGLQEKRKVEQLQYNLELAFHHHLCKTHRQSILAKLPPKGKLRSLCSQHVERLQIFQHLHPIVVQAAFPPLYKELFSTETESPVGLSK
full-length human RORγt, sequence (P51449 other isoform, or with tags, fused parts or gaps): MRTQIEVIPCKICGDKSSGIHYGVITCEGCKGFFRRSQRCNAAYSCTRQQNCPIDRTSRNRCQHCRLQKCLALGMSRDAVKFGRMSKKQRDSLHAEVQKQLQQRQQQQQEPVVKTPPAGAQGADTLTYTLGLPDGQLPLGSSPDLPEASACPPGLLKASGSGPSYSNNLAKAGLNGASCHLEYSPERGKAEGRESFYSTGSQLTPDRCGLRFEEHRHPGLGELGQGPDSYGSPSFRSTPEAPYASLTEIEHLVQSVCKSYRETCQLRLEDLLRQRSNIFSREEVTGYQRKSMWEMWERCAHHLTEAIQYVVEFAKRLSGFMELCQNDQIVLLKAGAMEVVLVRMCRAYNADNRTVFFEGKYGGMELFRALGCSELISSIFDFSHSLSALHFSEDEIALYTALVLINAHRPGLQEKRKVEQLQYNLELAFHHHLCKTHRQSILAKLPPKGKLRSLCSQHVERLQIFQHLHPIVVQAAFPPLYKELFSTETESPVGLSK

Row | IC50 (full-length human RORγt) [nM] | inhibition at 6 µM (full-length human RORγt) [%] | Compound | further results
1 | 470 | – | Cc1nc(C(=O)NC[C@H]2CC[C@H](S(C)(=O)=O)CC2)cn1-c1ccc(CC(C)(C)C(F)(F)F)cc1OC(F)F [Example 131, 1-(2-(Difluoromethoxy)-4-(3,3,3-trifluoro-2,2-dimethylpropyl)phenyl)-2-methyl-N-(((1r,4r)-4-(methylsulfonyl)cyclohexyl)methyl)-1H-imidazole-4-carboxamide] | Kd [1]: 97 nM; inhibition at 3 µM (full-length human RORγt; [2]): 73%
2 | 50 | 104 | CCc1nc(C(=O)NC[C@H]2CC[C@H](S(C)(=O)=O)CC2)c(Cl)n1-c1ncc(CCCC(F)(F)F)cc1OC(F)F [Example 48, 5-Chloro-1-(3-(difluoromethoxy)-5-(4,4,4-trifluorobutyl)pyridin-2-yl)-2-ethyl-N-(((1r,4r)-4-(methylsulfonyl)cyclohexyl)methyl)-1H-imidazole-4-carboxamide] | –
3 | 340 | 98 | CCc1nc(C(=O)NC[C@]2(O)CC[C@@H](S(C)(=O)=O)CC2)c(Cl)n1-c1ncc(CCCC(F)(F)F)cc1OC(F)F [Example 47, 5-Chloro-1-(3-(difluoromethoxy)-5-(4,4,4-trifluorobutyl)pyridin-2-yl)-2-ethyl-N-(((1s,4s)-1-hydroxy-4-(methylsulfonyl)cyclohexyl)methyl)-1H-imidazole-4-carboxamide] | –
4 | 2400 | 54 | CCc1nc(C(=O)NC[C@]2(O)CC[C@@H](S(C)(=O)=O)CC2)c(C#N)n1-c1cnc(CCC(F)(F)F)cc1OC [Example 118, 5-Cyano-2-ethyl-N-(((1s,4s)-1-hydroxy-4-(methylsulfonyl)cyclohexyl)methyl)-1-(4-methoxy-6-(3,3,3-trifluoropropyl)pyridin-3-yl)-1H-imidazole-4-carboxamide] | –
5 | – | – | CCc1nc(C(=O)NC[C@]2(O)CC[C@@H](S(C)(=O)=O)CC2)c(Cl)n1-c1ccc(CC(C)(C)C(F)(F)F)c(F)c1 [Example 104, 5-Chloro-2-ethyl-1-(3-fluoro-4-(3,3,3-trifluoro-2,2-dimethylpropyl)phenyl)-N-(((1s,4s)-1-hydroxy-4-(methylsulfonyl)cyclohexyl)methyl)-1H-imidazole-4-carboxamide] | Kd [1]: 5.4 nM
6 | – | – | CCc1nc(C(=O)NC[C@H]2CC[C@H](S(C)(=O)=O)CC2)c(Cl)n1-c1ccc(CC(C)(C)C(F)(F)F)c(F)c1 [Example 103, 5-Chloro-2-ethyl-1-(3-fluoro-4-(3,3,3-trifluoro-2,2-dimethylpropyl)phenyl)-N-(((1r,4r)-4-(methylsulfonyl)cyclohexyl)methyl)-1H-imidazole-4-carboxamide] | Kd [1]: 4.4 nM
7 | 120 | 90 | CCc1nc(C(=O)NC[C@]2(O)CC[C@@H](S(C)(=O)=O)CC2)c(C)n1-c1ncc(CC(C)(C)C(F)(F)F)cc1OC(F)F [Example 50, 1-(3-(Difluoromethoxy)-5-(3,3,3-trifluoro-2,2-dimethylpropyl)pyridin-2-yl)-2-ethyl-N-(((1s,4s)-1-hydroxy-4-(methylsulfonyl)cyclohexyl)methyl)-5-methyl-1H-imidazole-4-carboxamide] | –
8 | – | 78 | CCc1nc(C(=O)NC[C@]2(O)CC[C@@H](S(C)(=O)=O)CC2)c(C)n1-c1ncc(CCCC(F)(F)F)cc1OC(F)F [Example 52, 1-(3-(Difluoromethoxy)-5-(4,4,4-trifluorobutyl)pyridin-2-yl)-2-ethyl-N-(((1s,4s)-1-hydroxy-4-(methylsulfonyl)cyclohexyl)methyl)-5-methyl-1H-imidazole-4-carboxamide] | –
9 | – | – | CCc1nc(C(=O)NC[C@]2(O)CC[C@@H](S(C)(=O)=O)CC2)c(Cl)n1-c1ncc(CC(C)(C)CC(F)(F)F)cc1OC(F)F [Example 107, 5-Chloro-1-(3-(difluoromethoxy)-5-(4,4,4-trifluoro-2,2-dimethylbutyl)pyridin-2-yl)-2-ethyl-N-(((1s,4s)-1-hydroxy-4-(methylsulfonyl)cyclohexyl)methyl)-1H-imidazole-4-carboxamide] | inhibition at 3 µM (full-length human RORγt; [2]): 85%
10 | 53 | – | CCc1nc(C(=O)NC[C@]2(O)CC[C@@H](S(C)(=O)=O)CC2)c(Cl)n1-c1ccc(CC(C(F)(F)F)C(F)(F)F)c(F)c1 [Example 105, 5-Chloro-2-ethyl-1-(3-fluoro-4-(3,3,3-trifluoro-2-(trifluoromethyl)propyl)phenyl)-N-(((1s,4s)-1-hydroxy-4-(methylsulfonyl)cyclohexyl)methyl)-1H-imidazole-4-carboxamide] | inhibition at 0.22 µM (full-length human RORγt; 0.22 μM compound concentration (******), read-out: RORγt (FL) Reporter Assay A or B, % inhibition): 80%

Row | Compound | IC50 (full-length human RORγt) [nM] | inhibition at 6 µM (full-length human RORγt) [%] | further results
11 | CCc1nc(C(=O)NC[C@H]2CC[C@H](S(C)(=O)=O)CC2)c(C)n1-c1ccc(CC(C)C(F)(F)F)cc1OC (single isomer, unassigned) [Example 8] | 160 | – | inhibition at 0.67 µM (full-length human RORγt; read-out: RORγt (FL) Reporter Assay A or B, % inhibition, 0.67 μM compound concentration (****)): 66%
